Structures are written as SMILES. Activity calls are given as the source filed them.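 Rule for the calls: active = a tumour-causing dose and a tumour site recorded for mice in at least one sex group; inconclusive = only government mouse studies exist and were judged inadequate; inactive = mouse studies exist but none gave tumours.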

The subject of the first data set is mouse carcinogenicity bioassay, TD50 from CPDB. In words: DSSTox (CPDBAS) Carcinogenic Potency Database Summary Mouse Bioassay Results.
Settings: not given
An excerpt: The Carcinogenic Potency Database (CPDB) is a unique and widely used international resource of the results of over 6500 chronic, long-term animal cancer tests on over 1500 chemical substances. The CPDB provides easy access to the bioassay literature, with qualitative and quantitative analyses of both positive and negative experiments that have been published over the past 50 years in the general literature and by the National Cancer Institute/National Toxicology Program. The CPDB standardizes the diverse literature of cancer bioassays that vary widely in protocol, histopathological examination and nomenclature, and in the published author's choices of what information to provide in their papers. Results are reported in the CPDB for tests in rats, mice, hamsters, dogs, and nonhuman primates, and are based on the most positive result among all experiments for each sex-species. The DSSTox CPDBAS (all species) file incorporates data from the CPDB Summary Tables for the full list of over 1500 chemical substances tested in at least one species. Summary bioassay results for Mouse (TD50, tumor sites, male, female, both sexes) are provided in the CPDB Summary Tables and the DSSTox CPDBAS file for over 1000 chemical substances.
TD50 is a standardized quantitative measure of carcinogenic potency (analogous to an LD50) and is reported in the CPDB Summary Table for each species. Activity Score for actives is computed by mapping of LOG10 (1/TD50_Mouse_mmol) activity values spanning range [MIN, MAX] onto Integer 1-100 Activity Score range, where 100 is highest potency and 1 is lowest: Activity Score = 100 * INTEGER[(log10(1/Activity) - MIN)/(MAX […] MIN)]. If activity is reported but no TD50_Mouse_mmol value is computed, such as for a mixture, the Activity Score is assigned the activity value "50". […] Target sites are reported for each sex-species group with a positive result in the CPDB on the basis of a positive author's opinion for the particular site, using all results from both the general literature and NCI/NTP bioassays. If a chemical has two or more target sites listed, the results may be from different experiments, and a single site may be a target organ in more than one experiment, as well. Blank entry in TargetSites field indicates no results reported.
Turning to `O=NN1CCCCC1`, the Potency was 0.0114 mmol/kg/day.

As to `Nc1cccc2ccccc12`, the Potency was 0.47 mmol/kg/day.

Consider `Nc1ccc(Oc2ccc(N)c(N)c2)cc1`, for which the Potency was 0.0618 mmol/kg/day.

The same data set, now with this note: TD50_Mouse_Note: TD50 is harmonic mean of more than one positive test; TargetSites_Mouse_BothSexes: liver.
Take `ClC1=C(Cl)[C@]2(Cl)[C@@H]3[C@H]4C=CC(C4)[C@@H]3C1(Cl)C2(Cl)Cl`: the Potency is 0.00348 mmol/kg/day.

The data set is the same for the next values; noted with them: TD50_Mouse_Note: TD50 is harmonic mean of more than one positive test; TargetSites_Mouse_Female: esophagus; liver; lung; nasal cavity; oral cavity; stomach.
With `O=NN1CCCCCC1`, the Potency is 0.00412 mmol/kg/day.

Still in this data set, the particulars now being: TD50_Mouse_Note: TD50 is harmonic mean of more than one positive test; TargetSites_Mouse_Female: hematopoietic system; lung.
Turning to `CCCCNNCCCC`, the Potency was 0.213 mmol/kg/day.

The data set is the same for the next values; noted with them: TD50_Mouse_Note: TD50 is harmonic mean of more than one positive test; TargetSites_Mouse_Female: hematopoietic system; lung; myocardium; stomach.
As for `C[C@]12CC[C@@H]3c4ccc(OC(=O)Cc5ccc(N(CCCl)CCCl)cc5)cc4CC[C@H]3[C@@H]1CC[C@@H]2OC(=O)Cc1ccc(N(CCCl)CCCl)cc1`, the Potency was 0.00184 mmol/kg/day.

Still in this data set, the particulars now being: TD50_Mouse_Note: TD50 is harmonic mean of more than one positive test; TargetSites_Mouse_Female: hematopoietic system; stomach.
For `Nc1nc(/C=C/c2ccc([N+](=O)[O-])o2)no1`, the Potency is 0.504 mmol/kg/day.

The same data set, now with this note: TD50_Mouse_Note: TD50 is harmonic mean of more than one positive test; TargetSites_Mouse_Female: liver.
Consider `ClC(Cl)=C(c1ccc(Cl)cc1)c1ccc(Cl)cc1`, for which the Potency is 0.0393 mmol/kg/day.

For `Cc1ncc[nH]1`, the Potency is 9.52 mmol/kg/day.

As for `ClC(Cl)C(Cl)Cl`, the Potency is 0.228 mmol/kg/day.

With `O=C(O)C(Cl)(Cl)Cl`, the Potency was 3.57 mmol/kg/day.

`ClC(Cl)=C(Cl)Cl`: the Potency is 0.953 mmol/kg/day.

As for `Cc1ccc(N)cc1`, the Potency is 0.581 mmol/kg/day.

The data set is the same for the next values; noted with them: TD50_Mouse_Note: TD50 is harmonic mean of more than one positive test; TargetSites_Mouse_Female: liver; vascular system.
As to `Cc1ccc(Cl)cc1N`, the Potency was 1.38 mmol/kg/day.

Staying with this data set, now noted: TD50_Mouse_Note: TD50 is harmonic mean of more than one positive test; TargetSites_Mouse_Female: lung.
Consider `C=Cc1ccccc1`, for which the Potency was 2.02 mmol/kg/day.

As for `CC(C)CON=O`, the Potency was 3.01 mmol/kg/day.

Staying with this data set, now noted: TD50_Mouse_Note: TD50 is harmonic mean of more than one positive test; TargetSites_Mouse_Female: lung; vascular system.
Turning to `CC(=O)NNc1ccc(CO)cc1`, the Potency was 1.34 mmol/kg/day.

Still in this data set, the particulars now being: TD50_Mouse_Note: TD50 is harmonic mean of more than one positive test; TargetSites_Mouse_Female: mammary gland.
On to `COC1=CC(=O)C[C@@H](C)[C@]12Oc1c(Cl)c(OC)cc(OC)c1C2=O`, for which the Potency was 0.0391 mmol/kg/day.

Still in this data set, the particulars now being: TD50_Mouse_Note: TD50 is harmonic mean of more than one positive test; TargetSites_Mouse_Female: no positive results.
Turning to `OCCN(CCO)C(=S)S`, the Potency was 0.172 mmol/kg/day.

The data set is the same for the next values; noted with them: TD50_Mouse_Note: TD50 is harmonic mean of more than one positive test; greater than ten-fold variation among TD50 values for positive res; TargetSites_Mouse_Female: liver.
As to `COC(=O)C(C)(C)Oc1ccc(-c2ccc(Cl)cc2)cc1`, the Potency is 0.00824 mmol/kg/day.

Staying with this data set, now noted: TD50_Mouse_Note: TD50 is harmonic mean of more than one positive test; greater than ten-fold variation among TD50 values for positive res; TargetSites_Mouse_Female: urinary bladder.
For the compound `CCOc1ccc(NC(C)=O)cc1`, the Potency was 11.9 mmol/kg/day.

The data set is the same for the next values; noted with them: TD50_Mouse_Note: no positive results are statistically significant.
On to `Nc1ccc(-c2ccc(N)c(O)c2)cc1O`, for which the Potency was 1.22 mmol/kg/day.

Still in this data set, the particulars now being: TD50_Mouse_Note: no positive results; TargetSites_Mouse_Female: no positive results.
As for `Clc1nc(Cl)nc(Nc2ccccc2Cl)n1`, the outcome is “inactive; no positive results”.

On to `CC(C)(C)NC[C@H](O)COc1cccc2c1CCCC2=O`, for which the outcome is “inactive; no positive results”.

Consider `O=P(O)(O)O`, for which the outcome was “inactive; no positive results”.

On to `O=C(O)c1ccccc1-c1c2cc(I)c(=O)c(I)c-2oc2c(I)c(O)c(I)cc12`, for which the outcome was “inactive; no positive results”.

`COc1ccc(CCN2CCC(Nc3nc4ccccc4n3Cc3ccc(F)cc3)CC2)cc1`: the outcome was “inactive; no positive results”.

Consider `C/C=C/C(=O)Oc1c(C(C)CCCCCC)cc([N+](=O)[O-])cc1[N+](=O)[O-]` (stereo not drawn), for which the outcome is “inactive; no positive results”.

In the case of `CCN(Cc1cccc(S(=O)(=O)[O-])c1)c1ccc(C(=C2C=CC(=[N+](C)C)C=C2)c2ccc(N(CC)Cc3cccc(S(=O)(=O)O)c3)cc2)cc1`, the outcome is “inactive; no positive results”.

Regarding `C=C(C)C#N`, the outcome was “inactive; no positive results”.

As to `CC(C)OC(=O)Nc1cccc(Cl)c1`, the outcome is “inactive; no positive results”.

On to `O=S(=O)(c1ccc(Cl)cc1)c1cc(Cl)c(Cl)cc1Cl`, for which the outcome was “inactive; no positive results”.

`NC(=O)c1ccccc1C(N)=O`: the outcome is “inactive; no positive results”.

Consider `CNC(=O)Oc1cccc2ccccc12`, for which the outcome is “inactive; no positive results”.

For the compound `O=C1O[C@H]([C@@H](O)CO)C(O)=C1O`, the outcome is “inactive; no positive results”.

`OCc1ccccc1`: the outcome is “inactive; no positive results”.

Turning to `CC(=O)c1ccc(S(=O)(=O)NC(=O)NC2CCCCC2)cc1`, the outcome is “inactive; no positive results”.

On to `Cc1cc(N)ccc1N`, for which the outcome was “inactive; no positive results”.

As to `CN(N=O)C1=Nc2ccc(Cl)cc2C(c2ccccc2)=[N+]([O-])C1`, the outcome was “inactive; no positive results”.

As to `CCN(CC)C(=S)[S-].CCN(CC)C(=S)[S-].[Zn+2]`, the outcome is “inactive; no positive results”.

In the case of `C[C@](N)(Cc1ccc(O)c(O)c1)C(=O)O`, the outcome was “inactive; no positive results”.

With `NCCNc1cccc2ccccc12`, the outcome was “inactive; no positive results”.

Consider `CNC(=O)Oc1cccc2c1OC(C)(C)C2`, for which the outcome was “inactive; no positive results”.

For the compound `CC(=O)Nc1ccc(C(=O)CCl)cc1`, the outcome is “inactive; no positive results”.

For `c1ccc2sc(SN3CCOCC3)nc2c1`, the outcome is “inactive; no positive results”.

Turning to `O=C(O)Cc1c[nH]c2ccccc12`, the outcome is “inactive; no positive results”.

For the compound `NCCCCCCCCCCC(=O)O`, the outcome was “inactive; no positive results”.

Turning to `NC(=S)NNS(=O)(=O)c1ccccc1`, the outcome was inactive.

For the compound `COc1ccc(C(=O)/C(Br)=C\C(=O)O)cc1`, the outcome was “inactive; no positive results”.

For `CC(=O)[O][Sn]([c]1ccccc1)([c]1ccccc1)[c]1ccccc1`, the outcome was “inactive; no positive results”.

As to `ClCOCCCCOCCl`, the outcome was inactive.

Turning to `CCN(CC)C(=S)SSC(=S)N(CC)CC`, the outcome was “inactive; no positive results”.

Regarding `O=NO`, the outcome was “inactive; no positive results”.

On to `COP(=S)(OC)Oc1ccc(SC)c(C)c1`, for which the outcome was “inactive; no positive results”.

As for `CC(C)O`, the outcome was “inactive; no positive results”.

As for `CCOC(=O)CBr`, the outcome was inactive.

Consider `Cc1ccc(Cc2cnc(NCCSCc3ccc(CN(C)C)o3)[nH]c2=O)cn1`, for which the outcome is “inactive; no positive results”.

With `COc1cc(/C=C/C(=O)O[C@H]2CC[C@]34C[C@]35CC[C@]3(C)[C@@H]([C@H](C)CCC=C(C)C)CC[C@@]3(C)[C@@H]5CC[C@H]4C2(C)C)ccc1O`, the outcome was “inactive; no positive results”.

For the compound `COc1ccc2c3c1O[C@H]1[C@@H](O)C=C[C@H]4[C@@H](C2)N(C)CC[C@@]341`, the outcome was “inactive; no positive results”.

Turning to `Nc1ccc(N)c2c1C(=O)c1c(N)ccc(N)c1C2=O`, the outcome is “inactive; no positive results”.

`Nc1ccccc1`: the outcome was “inactive; no positive results”.

Regarding `Cc1ccc2c(-c3cccc(O)c3)nc(=O)n(C(C)C)c2c1`, the outcome was “inactive; no positive results”.

For `COC(=O)C1=C(C)NC(C)=C(C(=O)OCCN2CCN(C(c3ccccc3)c3ccccc3)CC2)C1c1cccc([N+](=O)[O-])c1` (stereo not drawn), the outcome is “inactive; no positive results”.

Staying with this data set, now noted: TD50_Mouse_Note: only experiment is NCI/NTP bioassay inadequate; TargetSites_Mouse_Female: NTP bioassay inadequate.
`Nc1nc(=S)c2ncn([C@H]3C[C@H](O)[C@@H](CO)O3)c2[nH]1`: the outcome is “ntp bioassay inadequate”.

Staying with this data set, now noted: TD50_Mouse_Note: positive test results only by intraperitoneal or intravenous injection; TargetSites_Mouse_Female: peritoneal cavity.
Regarding `ClCOCc1ccc(COCCl)cc1`, the Potency is 0.0132 mmol/kg/day.

Still in this data set, the particulars now being: TargetSites_Mouse_BothSexes: no positive results.
As for `[O]=[Nb](=[O])[OH]`, the result was inactive.

The same data set, now with this note: TargetSites_Mouse_Female: liver.
As for `COC(C)(C)C`, the Potency is 74.3 mmol/kg/day.

For the compound `O=C1CCc2ccccc2O1`, the Potency was 4.88 mmol/kg/day.

On to `Cc1ccc2c(c1N)C(=O)c1ccccc1C2=O`, for which the Potency was 0.733 mmol/kg/day.

The same data set, now with this note: TargetSites_Mouse_Female: lung.
Regarding `Cc1ccc(N)c(C)c1`, the Potency was 0.0787 mmol/kg/day.

In the case of `NNCc1ccccc1`, the Potency is 0.437 mmol/kg/day.

The data set is the same for the next values; noted with them: TargetSites_Mouse_Female: no positive results.
Regarding `CCCCCCCCS(=O)C(C)Cc1ccc2c(c1)OCO2` (stereo not drawn), the Potency is 0.192 mmol/kg/day.

Turning to `CC(C)(OCc1ccc(-c2ccc(Cl)cc2)cc1)C(=O)O`, the Potency is 0.505 mmol/kg/day.

In the case of `O=Nc1ccc(Nc2ccccc2)cc1`, the Potency is 1.72 mmol/kg/day.

Regarding `Nc1ccc(-c2ccc(N)c(N)c2)cc1N`, the Potency is 0.8 mmol/kg/day.

Turning to `O=C1c2ccccc2-c2ccc3c4c(ccc1c24)-c1ccccc1C3=O`, the Potency was 32.8 mmol/kg/day.

Still in this data set, the particulars now being: TargetSites_Mouse_Female: uterus.
As for `CCBr`, the Potency was 4.91 mmol/kg/day.
